Data reported in US20080108645A1, “Dihydrotetrabenazines And Pharmaceutical Compositions Containing Them” (CAMBRIDGE LABORATORIES, (IRELAND), LTD., priority 2004, published 2008).

Assays:
[1] = system: Imidazoline I2 (Central) Receptor; assay: Imidazoline I2 (central) receptor radioligand binding; design: species or system Wistar rat; details: 10 μM; 2 nM [3H] Idazoxan
Method: (a) Adrenergic α2A Receptor: • Reference: S. Uhlen et al. J. Pharmacol. Exp. Ther., 271:1558-1565 (1994) • Source: Human recombinant insect Sf9 cells • Ligand: 1 nM [^3H] […] J. Pharmacol., 99:803-809, (1990) • Source: Wistar rat cerebral cortex • Ligand: 2 nM [3H]

[2] = system: Catechol O-Methyl Transferase (COMT); assay: Catechol O-Methyl Transferase (COMT) inhibition; type: biochemical, Porcine; details: for Percentage Inhibition of Enzyme Activity, COMT: 10 μM
Method: Isomers B and C were tested for their ability to inhibit enzymes involved in the processing of monoamines in the CNS, namely Catechol O-Methyl Transferase (COMT), Monoamine Oxidase A and Monoamine Oxidase B. The assay methods used are described below and the results are set out in Table 7.
(a) Catechol O-Methyl Transferase (COMT) Inhibition • Source: Porcine liver • Substrate: 3 mM catechol+S-adenosyl-L-[^3H]methionine • Vehicle: 1% DMSO • Pre-incubation time/Temp: None • Incubation time: 60 minutes @ 37° C. • Incubation buffer: 100 mM potassium phosphate, 10 mM MgCl2, 3 mM DTT containing 12 units/ml adenosine deaminase, pH 7.4 • Quantitation method: Quantitation of [^3H] guiacol. • Significance criteria: ≧50% of maximum stimulation or inhibition (b) Monoamine Oxidase MAO-A Inhibition • Source: Human recombinant • Substrate: 50 μM kynuramine • Vehicle: 1% DMSO • Pre-incubation time/Temp: 15 minutes @ 37° C. • Incubation time: 60 minutes @ 37° C. • Incubation buffer: 100 mM KH2PO4, pH 7.4 • Quantitation method: Spectrofluorimetric quantitation of 4-hydroxyquinoline • Significance criteria: ≧50% of maximum stimulation or inhibition (c) Monoamine Oxidase MAO-B Inhibition • Source: Human recombinant • Substrate: 50 μM kynuramine • Vehicle: 1% DMSO • Pre-incubation time/Temp: 15 minutes @ 37° C. • Incubation time: 60 minutes @ 37° C. • Incubation buffer: 100 mM KH2PO4, pH 7.4 • Quantitation method: Spectrofluorimetric quantitation of 4-hydroxyquinoline • Significance criteria: ≧50% of maximum stimulation or inhibition

[3] = system: Caco-2 monolayer; details: Caco-2
Text: The assay relies on the ability of Caco-2 cells to differentiate into enterocytes when cultured on a microporous filter for a period of approximately 21 days. During the culture period, the Caco-2 cells undergo spontaneous morphological and biochemical changes, which produce a polarized monolayer with a well-defined brush border on the apical surface, as well as tight cellular junctions. Therefore, these cells may be used as an in vitro model for the analysis of drug permeability.
Absorption across the Caco-2 monolayer can be measured in two directions: apical-to-basolateral or basolateral-to-apical, by adding the compound to the apical or the basolateral chamber, respectively. At various time-points, samples are collected from the receiver-chamber for analysis for the rate of absorption as measured by the apparent permeability coefficient (Papp) across the monolayer.
The Papp value reflects a combination of the test article permeability through both transcellular (through cell membranes) and the paracellular (across the tight junctions between the cells) pathways. The relative contribution of these pathways depends upon the pKa, partition coefficient (log D), molecular radius, and charge of the test article at a given pH. Papp values can then be used to rank-order compounds for their permeability through Caco-2 monolayers.
Absorption was determined at pH 7.4 across cell monolayers in the apical-to-basolateral direction. Caco-2 cells used to estimate Papp values were grown for 26 days on Transwell inserts in 12-well plates. Monolayer integrity was verified before and after the absorption assay by the methods of transepithelial electrical resistance (Ohm-cm^2) and Lucifer Yellow.
On the day of the assay, the reference standards were diluted in Hank's balanced salt solution (HBSS), pH 7.4 to a final concentration of 50 μM. […] Dihydrotetrabenazine isomer samples were prepared at a concentration of 50 mM in DMSO. Each stock solution was further diluted in HBSS buffer (pH 7.4) to a final working concentration of 50 μM
The Caco-2 cell suspensions were prepared as follows. […] Once the cell density and viability were determined, Caco-2 cells were diluted in culture medium to a final working concentration of 2.0×10^5 cells/ml. The Caco-2 culture medium contained Dulbecco's Modified Eagle Medium, 10% fetal bovine serum, 100 μM non-essential amino acids, 100 U/ml penicillin and 100 μg/ml streptomycin.
Costar polycarbonate membranes (0.4 μm pore size) were pre-equilibrated with Caco-2 culture medium for 1 hour in a 37° C. water-jacketed incubator with 5% CO2. The content of the apical chamber was removed and replaced with 500 μl of Caco-2 cell suspension (200 000 cells/ml). Cells were further maintained in culture for 26 days in a 37° C. water-jacketed incubator with 5% CO2.
Prior to the assay, all monolayers were washed twice with HBSS and their transepithelial electrical resistance (TEER) was measured with a Millicell-ERS meter. TEER values obtained in the absence of cells were subtracted as background signal. Only monolayer with TEER values over 150 Ohm-cm^2 were used for the absorption assay experiment.
All absorption experiments were conducted in triplicate at pH 7.4. The rate of absorption of each reference standard and dihydrotetrabenazine test article was assessed in the apical-to-basolateral direction. Aliquots (100 μl) of each working solution (reference standards and test articles at 50 μM) were set aside at the beginning of the assay for the determination of the initial concentration (Co).
Absorption experiments were initiated by replacing the content of the donor chamber with 500 μl of Hanks Balanced Salt Solution containing test articles or reference compounds. Cells were returned to the CO2 incubator for the absorption assay. Samples of 100 μl were collected from the receiver and donor chambers after 1 hour and were used to determine the percentage of recovery.

[4] = biological target: T1, Monoamine Oxidase MAO-A (Homo sapiens, UniProt P21397); assay: Monoamine Oxidase MAO-A inhibition; type: biochemical; details: for inhibition at 10 µM: read-out: Percentage Inhibition of Enzyme Activity, MAO-A
T1 sequence (P21397 1-527): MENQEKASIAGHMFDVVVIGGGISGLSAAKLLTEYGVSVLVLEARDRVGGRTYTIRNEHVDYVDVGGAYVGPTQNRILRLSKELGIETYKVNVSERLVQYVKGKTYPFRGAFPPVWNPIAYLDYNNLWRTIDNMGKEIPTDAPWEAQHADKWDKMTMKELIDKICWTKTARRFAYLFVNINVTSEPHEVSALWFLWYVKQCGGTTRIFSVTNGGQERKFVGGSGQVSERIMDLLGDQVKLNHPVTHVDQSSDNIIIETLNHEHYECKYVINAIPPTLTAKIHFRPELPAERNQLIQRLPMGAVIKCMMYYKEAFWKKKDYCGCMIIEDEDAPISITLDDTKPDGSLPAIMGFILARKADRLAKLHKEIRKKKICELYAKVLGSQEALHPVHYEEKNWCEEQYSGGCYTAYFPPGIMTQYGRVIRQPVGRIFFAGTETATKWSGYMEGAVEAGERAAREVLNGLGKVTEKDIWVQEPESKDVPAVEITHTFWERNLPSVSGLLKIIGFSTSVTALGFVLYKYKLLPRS
Method: Isomers B and C were tested for their ability to inhibit enzymes involved in the processing of monoamines in the CNS, namely Catechol O-Methyl Transferase (COMT), Monoamine Oxidase A and Monoamine Oxidase B. The assay methods used are described below and the results are set out in Table 7. (a) Catechol O-Methyl Transferase (COMT) Inhibition • Source: […] None • Incubation time: 60 minutes @ 37° C. • Incubation buffer: 100 mM potassium phosphate, 10 mM MgCl2, 3 mM DTT containing 12 units/ml adenosine deaminase, pH 7.4 • Quantitation method: […]

| SMILES | Percentage Inhibition of Specific Binding, I2 Receptor [1] | inhibitory activity against COMT (in words) [2] | Percentage Inhibition of Enzyme Activity, COMT [2] | permeability in the Caco-2 model (in words) [3] | inhibitory activity against monoamine oxidase isoform A (in words) [4] | inhibition at 10 µM [4] |
| --- | --- | --- | --- | --- | --- | --- |
| COc1cc2c(cc1OC)[C@H]1C[C@H](O)[C@@H](CC(C)C)CN1CC2 (single isomer, unassigned) [Isomer B, 3,11b-cis-dihydrotetrabenazine] | 8% | no inhibitory activity | −12% | medium permeability | no inhibitory activity | 3% |
| COc1cc2c(cc1OC)[C@H]1C[C@@H](O)[C@@H](CC(C)C)CN1CC2 (single isomer, unassigned) [Isomer C, 3,11b-cis-dihydrotetrabenazine] | 0% | no inhibitory activity | −22% | high permeability | no inhibitory activity | 3% |
